Experimental findings from US20160102058A1, “FLUORO-PERHEXILINE COMPOUNDS AND THEIR THERAPEUTIC USE” (THE UNIVERSITY COURT OF THE UNIVERSITY OF ABERDEEN, priority 2013, published 2016) are described below.

The assay has as its target T1, cardiac CPT-1 (Rattus norvegicus, UniProt Q63704).
T1 construct: 50 μL of mitochondrial suspension, suitably diluted in Assay Buffer; from tissue; host or cells: rat heart mitochondria (Sprague-Dawley)
T1 sequence (Q63704 1-772): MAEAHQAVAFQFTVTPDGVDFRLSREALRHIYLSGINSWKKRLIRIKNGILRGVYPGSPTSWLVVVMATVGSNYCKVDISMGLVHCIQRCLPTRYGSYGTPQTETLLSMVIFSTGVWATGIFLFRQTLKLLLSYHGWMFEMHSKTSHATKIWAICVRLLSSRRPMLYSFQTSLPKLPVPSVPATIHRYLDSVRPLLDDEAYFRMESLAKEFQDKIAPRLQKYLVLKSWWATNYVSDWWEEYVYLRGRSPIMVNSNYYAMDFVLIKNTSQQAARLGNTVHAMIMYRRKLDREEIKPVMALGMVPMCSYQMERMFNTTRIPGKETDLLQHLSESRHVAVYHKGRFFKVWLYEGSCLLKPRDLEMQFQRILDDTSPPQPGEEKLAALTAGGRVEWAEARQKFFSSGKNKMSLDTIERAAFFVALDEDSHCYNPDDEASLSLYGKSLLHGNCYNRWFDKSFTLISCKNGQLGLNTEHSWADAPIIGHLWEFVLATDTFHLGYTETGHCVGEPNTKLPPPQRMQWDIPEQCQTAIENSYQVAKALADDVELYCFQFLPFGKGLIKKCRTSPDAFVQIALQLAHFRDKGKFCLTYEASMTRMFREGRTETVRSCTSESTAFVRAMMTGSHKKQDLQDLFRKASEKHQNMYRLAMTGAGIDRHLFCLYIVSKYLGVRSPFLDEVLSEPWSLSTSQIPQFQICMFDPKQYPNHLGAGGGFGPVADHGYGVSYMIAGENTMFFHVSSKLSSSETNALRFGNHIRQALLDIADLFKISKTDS
In words: Carnitine palmitoyl transferase (M-CPT-1) inhibition assay, rat heart mitochondria. Type of assay: biochemical. The protocol: Male Sprague-Dawley rats (8-10 weeks of age) were purchased from Charles River and maintained for 10 days under standard housing and feeding conditions. All isolation procedures were performed on ice using pre-cooled solutions and instruments. Rats (n=4 per mitochondrial isolation batch) were sacrificed by CO2 asphyxiation, and hearts were removed and rinsed in 3 changes of ice-cold phosphate buffered saline (PBS) to remove blood. Hearts were finely minced with scissors, and homogenised in 5 volumes/wt of a buffer containing 300 mM sucrose, 5 mM MOPS, 1 mM EGTA, 5 mM K2HPO4, 0.1% BSA, pH 7.4, using a teflon Potter homogenizer. The homogenate was centrifuged at 1500×g for 10 min, the supernatant was collected and centrifuged at 9800×g for 5 min, the mitochondrial pellet was washed and centrifuged twice in the same buffer, and then re-suspended in Assay Buffer (150 mM sucrose, 60 mM KCl, 25 mM Tris/HCl, 1 mM EDTA, 0.1 mM 4,4′-dithiopyridine, 1.3 mg/mL lipid-depleted BSA, pH 6.8). Mitochondrial suspensions were kept on ice and used fresh for each set of experiments. A spectrophotometric assay for M-CPT-1 was used, which measured the decrease in palmitoyl CoA concentration as it was utilised by the enzyme to produce palmitoylcarnitine, according to the following reaction: palmitoyl CoA+L-carnitine→palmitoylcarnitine+CoA The disappearance of palmitoyl CoA was monitored as a loss of UV absorbance at 324 nm. Enzyme reactions (1.0 mL final volume, in a spectrophotometer cuvette) contained: • 890 μL of Assay Buffer (see above). • 50 μL of mitochondrial suspension, suitably diluted in Assay Buffer. • 20 μL of 50-fold concentrated inhibitor in suitable vehicle, or vehicle alone. • 20 μL of 2 mM palmitoyl CoA (final concentration 40 μM). • 20 μL of 20 mM L-carnitine (final concentration 400 μM). […] Tubes were incubated at 37° C., and UV absorbance was recorded for 5 min. […] The protein concentration of the mitochondrial suspension was determined using the Bradford assay reagent. […]

In general, IC50 refers to the concentration needed to halve the response being measured.

The compound `FC1(F)CCC(C(CC2CCCCN2)C2CCCCC2)CC1` (mixture of isomers) [FPER-001, 2-(2-Cyclohexyl-2-(4,4-difluorocyclohexyl)ethyl)piperidine] registered an IC50 of 35 µM.

With `FC1CCC(C(CC2CCCCN2)C2CCCCC2)CC1` (mixture of isomers) [FPER-003, 2-(2-Cyclohexyl-2-(4-fluorocyclohexyl)ethyl)piperidine], 85 µM corresponded to half-maximal inhibition (IC50).

For the compound `C1CCC(C(CC2CCCCN2)C2CCCCC2)CC1` (stereo not drawn) [Perhexiline, 2-(2,2-dicyclohexylethyl)piperidine], the IC50 turned out to be 18 µM.
